Key:
H929 cells = experiment: In vitro cytotoxicity (MTT) on H929 multiple myeloma tumour line; format: cell-based; conditions: Homo sapiens, NCI-H929, exposed 48 hours, Microculture Tetrazolium Assay
Method: The cytotoxicity studies were carried out on the H929 multiple myeloma tumour line.
The cells are distributed onto microplates and exposed to the test compounds for 48 hours.
The cell viability is then quantified by a colorimetric assay, the Microculture Tetrazolium Assay (Cancer Res., 1987, 47, 939-942).

Mcl-1 protein = Mcl-1 protein (Homo sapiens, UniProt Q07820); experiment: Inhibition of Mcl-1 by the fluorescence polarisation technique; format: binding; conditions: fluorescence polarisation test; Fluorescein labelled ligand 1 nM, Mcl-1 protein 5 nM, ~2 hours at r.t.; read-out: IC50 (M) Mcl-1 FP
Method: The relative binding potency of each compound was determined via Fluorescence Polarisation (FP). The method utilised a Fluorescein labelled ligand (Fluorescein-βAla-Ahx-A-REIGAQLRRMADDLNAQY-OH; mw 2,765) which binds to the Mcl-1 protein (such that Mcl-1 corresponds to the UniProtKB® primary accession number: Q07820) leading to an increased anisotropy measured in milli-polarisation (mP) units using a reader. The addition of a compound which binds competitively to the same site as the ligand will result in a greater proportion of unbound ligand in the system indicated by a decrease in mP units.
An 11 point serial dilution of each compound was prepared in DMSO and 2 μl transferred into flat bottomed, low binding, 384-well plate (final DMSO concentration 5%). 38 μl of buffer (10 mM 4-(2-hydroxyethyl)-1-piperazineethanesulfonic acid [HEPES], 150 mM NaCl, 0.05% Tween 20, pH 7.4), containing the Fluorescein labelled ligand (final concentration 1 nM) and Mcl-1 protein (final concentration 5 nM) was then added.
Assay plates were incubated ˜2 hours at r.t. before FP was measured on a Biomek Synergy2 reader (Ex. 528 nm, Em. 640 nm, Cut off 510 nm) and mP units calculated. The binding of increasing doses of test compound was expressed as a percentage reduction in mP compared to a window established between ‘5% DMSO only’ and ‘100% inhibition’ controls. 11-point dose response curves were plotted with XL-Fit software using a 4-Parameter Logistic Model (Sigmoidal Dose-Response Model) and the inhibitory concentrations that gave a 50% reduction in mP (IC50) were determined.

Sequence of Mcl-1 protein (Q07820 whole entry): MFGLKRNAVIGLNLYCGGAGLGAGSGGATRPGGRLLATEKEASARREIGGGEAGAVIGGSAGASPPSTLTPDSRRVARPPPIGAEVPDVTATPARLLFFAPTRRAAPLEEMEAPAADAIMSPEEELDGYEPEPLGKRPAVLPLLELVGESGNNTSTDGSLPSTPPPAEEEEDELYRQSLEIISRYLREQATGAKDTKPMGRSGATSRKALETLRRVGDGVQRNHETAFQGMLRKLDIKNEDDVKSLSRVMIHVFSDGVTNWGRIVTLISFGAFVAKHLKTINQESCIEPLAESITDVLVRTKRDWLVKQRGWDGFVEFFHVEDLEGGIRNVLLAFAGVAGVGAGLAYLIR

Compound	IC50 (Mcl-1 protein)	IC50 (H929 cells)
Cc1c(-c2c(-c3ccc(F)cc3)sc3ncnc(OC(Cc4ccccc4OCc4ccnc(-c5ccc(O)cc5)n4)C(=O)O)c23)ccc(OCCN2CCN(C)CC2)c1Cl [Example 2, (2R)-2-{[(5Sa)-5-{3-chloro-2-methyl-4-[2-(4-methylpiperazin-1-yl)ethoxy]phenyl}-6-(4-fluorophenyl)thieno[2,3-d]pyrimidin-4-yl]oxy}-3-(2-{[2-(4-hydroxyphenyl)pyrimidin-4-yl]methoxy}phenyl)propanoic acid]	1.32e-08 M	15.9 nM
Cc1c(-c2c(-c3ccc(F)cc3)sc3ncnc(OC(Cc4ccccc4OCc4ccnc(-c5ccc(CO)cc5)n4)C(=O)O)c23)ccc(OCCN2CCN(C)CC2)c1Cl [Example 4, (2R)-2-{[(5Sa)-5-{3-chloro-2-methyl-4-[2-(4-methylpiperazin-1-yl)ethoxy]phenyl}-6-(4-fluorophenyl)thieno[2,3-d]pyrimidin-4-yl]oxy}-3-[2-({2-[4-hydroxymethyl)phenyl]pyrimidin-4-yl}methoxy)phenyl]propanoic acid]	4.9e-09 M	3.64 nM
COCCOCCOCCOc1cccc(-c2nccc(COc3ccccc3CC(Oc3ncnc4sc(-c5ccc(F)cc5)c(-c5ccc(OCCN6CCN(C)CC6)c(Cl)c5C)c34)C(=O)O)n2)c1 [Example 48, (2R)-2-{[(5Sa)-5-{3-chloro-2-methyl-4-[2-(4-methylpiperazin-1-yl)ethoxy]phenyl}-6-(4-fluorophenyl)thieno[2,3-d]pyrimidin-4-yl]oxy}-3-(2-{[2-(3-{2-[2-(2-methoxyethoxy)ethoxy]ethoxy}phenyl)pyrimidin-4-yl]methoxy}phenyl)propanoic acid]	3.85e-09 M	
Cc1c(-c2c(-c3ccc(F)cc3)sc3ncnc(OC(Cc4ccccc4OCc4ccnc(-c5ccc(OCC6COC(C)(C)O6)cc5)n4)C(=O)O)c23)ccc(OCCN2CCN(C)CC2)c1Cl [Example 55, (2R)-2-{[(5Sa)-5-{3-chloro-2-methyl-4-[2-(4-methylpiperazin-1-yl)ethoxy]phenyl}-6-(4-fluorophenyl)thieno[2,3-d]pyrimidin-4-yl]oxy}-3-{2-[(2-{4-[(2,2-dimethyl-1,3-dioxolan-4-yl)methoxy]phenyl}pyrimidin-4-yl)methoxy]phenyl}propanoic acid]	6.35e-09 M	
CCOC(=O)OC(C)OC(=O)C(Cc1ccccc1OCc1ccnc(-c2cccc(OC(COC)COC)c2)n1)Oc1ncnc2sc(-c3ccc(F)cc3)c(-c3ccc(OCCN4CCN(C)CC4)c(Cl)c3C)c12 [Example 69, 1-[(ethoxycarbonyl)oxy]ethyl (2R)-2-{[(5Sa)-5-{3-chloro-2-methyl-4-[2-(4-methylpiperazin-1-yl)ethoxy]phenyl}-6-(4-fluorophenyl)thieno[2,3-d]pyrimidin-4-yl]oxy}-3-{2-[(2-{3-[(1,3-dimethoxypropan-2-yl)oxy]phenyl}pyrimidin-4-yl)methoxy]phenyl}propanoate]	7.6e-08 M	
Cc1c(-c2c(-c3ccc(F)cc3)sc3ncnc(OC(Cc4ccccc4OCc4ccnc(-c5cncc(CO)c5)n4)C(=O)O)c23)ccc(OCCN2CCN(C)CC2)c1Cl [Example 79, (2R)-2-{[(5Sa)-5-{3-chloro-2-methyl-4-[2-(4-methylpiperazin-1-yl)ethoxy]phenyl}-6-(4-fluorophenyl)thieno[2,3-d]pyrimidin-4-yl]oxy}-3-[2-({2-[5-(hydroxymethyl)pyridin-3-yl]pyrimidin-4-yl}methoxy)phenyl]propanoic acid]	7.6e-09 M	
(2R)-2-{[(5Sa)-5-{2,3-dimethyl-4-[2-(4-methylpiperazin-1-yl)ethoxy]phenyl}-6-(4-fluorophenyl)thieno[2,3-d]pyrimidin-4-yl]oxy}-3-{2-[(2-{3-[({[2-(piperidin-1-yl)ethyl]carbamoyl}oxy)methyl]phenyl}pyrimidin-4-yl)methoxy]phenyl}propanoic acid [Example 50]	6.6e-09 M	

Now from value to compound, other results behind:

IC50 (Mcl-1 protein)	Compound	IC50 (H929 cells)
8.4e-09 M	Cc1c(-c2c(-c3ccc(F)cc3)sc3ncnc(OC(Cc4ccccc4OCc4ccnc(-c5cccc(O)c5)n4)C(=O)O)c23)ccc(OCCN2CCN(C)CC2)c1Cl [Example 1, (2R)-2-{[(5Sa)-5-{3-chloro-2-methyl-4-[2-(4-methylpiperazin-1-yl)ethoxy]phenyl}-6-(4-fluorophenyl)thieno[2,3-d]pyrimidin-4-yl]oxy}-3-(2-{[2-(3-hydroxyphenyl)pyrimidin-4-yl]methoxy}phenyl)propanoic acid]	9.31 nM
4.05e-09 M	Cc1c(-c2c(-c3ccc(F)cc3)sc3ncnc(OC(Cc4ccccc4OCc4ccnc(-c5cccc(CO)c5)n4)C(=O)O)c23)ccc(OCCN2CCN(C)CC2)c1Cl [Example 3, (2R)-2-{[(5Sa)-5-{3-chloro-2-methyl-4-[2-(4-methylpiperazin-1-yl)ethoxy]phenyl}-6-(4-fluorophenyl)thieno[2,3-d]pyrimidin-4-yl]oxy}-3-[2-({2-[3-(hydroxymethyl)phenyl]pyrimidin-4-yl}methoxy)phenyl]propanoic acid]	4.08 nM
4.65e-09 M	Cc1c(-c2c(-c3ccc(F)cc3)sc3ncnc(OC(Cc4ccccc4OCc4ccnc(-c5cccc(OCCN(CCO)CCO)c5)n4)C(=O)O)c23)ccc(OCCN2CCN(C)CC2)c1Cl [Example 49, (2R)-3-(2-{[2-(3-{2-[bis(2-hydroxyethyl)amino]ethoxy}phenyl)pyrimidin-4-yl]methoxy}phenyl)-2-{[(5Sa)-5-{3-chloro-2-methyl-4-[2-(4-methylpiperazin-1-yl)ethoxy]phenyl}-6-(4-fluorophenyl)thieno[2,3-d]pyrimidin-4-yl]oxy}propanoic acid]	
4.15e-09 M	Cc1c(-c2c(-c3ccc(F)cc3)sc3ncnc(OC(Cc4ccccc4OCc4ccnc(-c5cccc(OCCN6CCOCC6)c5)n4)C(=O)O)c23)ccc(OCCN2CCN(C)CC2)c1Cl [Example 51, (2R)-2-{[(5Sa)-5-{3-chloro-2-methyl-4-[2-(4-methylpiperazin-1-yl)ethoxy]phenyl}-6-(4-fluorophenyl)thieno[2,3-d]pyrimidin-4-yl]oxy}-3-{2-[(2-{3-[2-(morpholin-4-yl)ethoxy]phenyl}pyrimidin-4-yl)methoxy]phenyl}propanoic acid]	
3.7e-09 M	Cc1c(-c2c(-c3ccc(F)cc3)sc3ncnc(OC(Cc4ccccc4OCc4ccnc(-c5cccc(OCCN(C)C)c5)n4)C(=O)O)c23)ccc(OCCN2CCN(C)CC2)c1Cl [Example 52, (2R)-2-{[(5Sa)-5-{3-chloro-2-methyl-4-[2-(4-methylpiperazin-1-yl)ethoxy]phenyl}-6-(4-fluorophenyl)thieno[2,3-d]pyrimidin-4-yl]oxy}-3-{2-[(2-{3-[2-(dimethylamino)ethoxy]phenyl}pyrimidin-4-yl)methoxy]phenyl}propanoic acid]	
4.65e-09 M	Cc1c(-c2c(-c3ccc(F)cc3)sc3ncnc(OC(Cc4ccccc4OCc4ccnc(-c5ccc(OCCN(CCO)CCO)cc5)n4)C(=O)O)c23)ccc(OCCN2CCN(C)CC2)c1Cl [Example 53, (2R)-3-(2-{[2-(4-{2-[bis(2-hydroxyethyl)amino]ethoxy}phenyl)pyrimidin-4-yl]methoxy}phenyl)-2-{[(5Sa)-5-{3-chloro-2-methyl-4-[2-(4-methylpiperazin-1-yl)ethoxy]phenyl}-6-(4-fluorophenyl)thieno[2,3-d]pyrimidin-4-yl]oxy}propanoic acid]	
4.6e-09 M	Cc1c(-c2c(-c3ccc(F)cc3)sc3ncnc(OC(Cc4ccccc4OCc4ccnc(-c5ccc(OCCOCCOCCO)cc5)n4)C(=O)O)c23)ccc(OCCN2CCN(C)CC2)c1Cl [Example 54, (2R)-2-{[(5Sa)-5-{3-chloro-2-methyl-4-[2-(4-methylpiperazin-1-yl)ethoxy]phenyl}-6-(4-fluorophenyl)thieno[2,3-d]pyrimidin-4-yl]oxy}-3-(2-{[2-(4-{2-[2-(2-hydroxyethoxy)ethoxy]ethoxy}phenyl)pyrimidin-4-yl]methoxy}phenyl)propanoic acid]	
4.75e-09 M	Cc1c(-c2c(-c3ccc(F)cc3)sc3ncnc(OC(Cc4ccccc4OCc4ccnc(-c5ccc(OCCN6CCOCC6)cc5)n4)C(=O)O)c23)ccc(OCCN2CCN(C)CC2)c1Cl [Example 56, (2R)-2-{[(5Sa)-5-{3-chloro-2-methyl-4-[2-(4-methylpiperazin-1-yl)ethoxy]phenyl}-6-(4-fluorophenyl)thieno[2,3-d]pyrimidin-4-yl]oxy}-3-{2-[(2-{4-[2-(morpholin-4-yl)ethoxy]phenyl}pyrimidin-4-yl)methoxy]phenyl}propanoic acid]	
7.7e-09 M	Cc1c(-c2c(-c3ccc(F)cc3)sc3ncnc(OC(Cc4ccccc4OCc4ccnc(-c5cnc(CO)nc5)n4)C(=O)O)c23)ccc(OCCN2CCN(C)CC2)c1Cl [Example 82, (2R)-2-{[(5Sa)-5-{3-chloro-2-methyl-4-[2-(4-methylpiperazin-1-yl)ethoxy]phenyl}-6-(4-fluorophenyl)thieno[2,3-d]pyrimidin-4-yl]oxy}-3-(2-{[2′-(hydroxymethyl)-2,5′-bipyrimidin-4-yl]methoxy}phenyl)propanoic acid]	

From US10322131B2, “Hydroxyacid derivatives, a process for their preparation and pharmaceutical compositions containing them” (LES LABORATOIRES SERVIER, priority 2015, dated 2019)
